Measurements from patent publication US8487096B2, “Imidazo[1,2-B][1,2,4]triazines as C-MET inhibitors” (Incyte Corporation, priority 2010, dated 2013).

Target: c-Met kinase (histidine-tagged c-Met catalytic domain fusion protein) (Homo sapiens (Human), UniProt P08581)
Test: In Vitro c-Met Kinase Enzyme Assays
Type: biochemical
Conditions: inhibition of c-Met kinase; phosphorylation of poly Glu-Tyr, 5 μM ATP, 25 minutes at 30° C.
Protocol: The compounds of the invention were screened in vitro for their ability to inhibit c-Met kinase activity. The IC50 values for the inhibition of c-Met kinase were determined as described in the literature with some modifications (Wang, X. et al, Mol. Cancer. Ther. 2003, 2(11):1085-1092; Calic, M. et al., Croatica Chemical ACTA. 2005, 78(3):367-374). Briefly, histidine-tagged c-Met catalytic domain fusion protein (Invitrogen, # PV3143) was used for the assay. IC50 measurements were based on the degree of phosphorylation of poly Glu-Tyr (Sigma-Aldrich, # PO275) that was coated (0.01 mg/per well) on 96-well microplates (R&D systems, # DY990). The reaction was carried out in a 50 μL solution containing 50 mM HEPES (pH 7.5), 10 mM MnCl2, 10 mM MgCl2, 0.5 mM DTT, 100 μM Na3VO4, 5 μM ATP (Cell Signaling Technology, #9804) and serial dilutions of the test compound. The reaction lasted for 25 minutes at 30° C. After the reaction was completed, the contents of the plates were discarded. Plates were then washed with TBS-T (250 μL/well, 5×) and then blocked with TBS-T containing 1% BSA for 2 hours. The contents of the plates was discarded, and 100 μL (per well) of peroxidase-labeled anti-phospho-tyrosine antibody (Sigma, # A5964) diluted (1:60,000) in 1% BSA containing TBS-T were then added and incubated for 1 hour. Plates were washed with TBS-T (250 μL/well, 5×) and followed by the color reaction using 100 μL (1:1 mixture) of H2O2 and tetramethylbenzidine (R&D Systems, # DY999). The reaction was stopped in minutes with […] of 2 N H2SO4. The optical density was measured immediately using a microplate reader at 450 nm with wavelength correction at 540 nm. IC50 values were calculated with the GraphPad Prism software. The linear range (i.e., the time period over which the rate remained equivalent to the initial rate) was determined for the kinase and IC50 determinations were performied within this range.

c-Met kinase (histidine-tagged c-Met catalytic domain fusion protein), sequence (P08581 1078-1345): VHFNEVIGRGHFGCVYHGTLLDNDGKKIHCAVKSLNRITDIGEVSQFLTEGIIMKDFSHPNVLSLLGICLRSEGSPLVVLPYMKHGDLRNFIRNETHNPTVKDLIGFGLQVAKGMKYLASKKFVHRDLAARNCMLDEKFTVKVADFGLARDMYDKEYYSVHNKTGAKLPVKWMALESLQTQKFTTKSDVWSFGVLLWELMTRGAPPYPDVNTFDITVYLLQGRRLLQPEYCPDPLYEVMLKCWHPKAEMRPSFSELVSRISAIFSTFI

SMILES | IC50 [nM]
Cc1nc([C@H](C)NC(=O)c2ccc(-c3cnc4ncc(Cc5ccc6ncccc6c5)n4n3)cc2Cl)no1 [Formula III, 2-chloro-N-[(1S)-1-(5-methyl-1,2,4-oxadiazol-3-yl)ethyl]-4-[7-(quinolin-6-ylmethyl)imidazo[1,2-b][1,2,4]triazin-2-yl]benzamide] | 0.1 to 1
CNC(=O)c1ccc(-c2cnc3ncc(Cc4ccc5ncccc5c4)n3n2)cn1 [Formula IV, N-methyl-5-[7-(quinolin-6-ylmethyl)imidazo[1,2-b][1,2,4]triazin-2-yl]pyridine-2-carboxamide] | 0.1 to 1
CNC(=O)c1ccc(-c2cnc3ncc(Cc4ccc5ncccc5c4)n3n2)cc1C [Formula V, N,2-dimethyl-4-[7-(quinolin-6-ylmethyl)imidazo[1,2-b][1,2,4]triazin-2-yl]benzamide] | 0.1 to 1

More lines, now with the values ahead:

IC50 [nM] | SMILES
0.1 to 1 | C[C@@H](O)CNC(=O)c1ccc(-c2cnc3ncc(Cc4ccc5ncccc5c4)n3n2)cc1F [Formula I, 2-fluoro-N-[(2R)-2-hydroxypropyl]-4-[7-(quinolin-6-ylmethyl)imidazo[1,2-b][1,2,4]triazin-2-yl]benzamide]
0.1 to 1 | CNC(=O)c1ccc(-c2cnc3ncc(Cc4ccc5ncccc5c4)n3n2)cc1Cl [Formula II, 2-chloro-N-methyl-4-(7-(quinolin-6-ylmethyl)imidazo[1,2-b][1,2,4]triazin-2-yl)benzamide]
